Entries after “also recorded” stand apart in the source; their conditions may differ.
What was measured:
[1] = Stability tests, accelerated storage 54° C. for 14 days (discoloration of vanillin); assay type: physicochemical; details: room temperature and 54° C.; antioxidant added to vanillin-containing composition
Experimental: […] The front line accelerated conditions recommend testing at 54° C. for 14 days (see BPR 528/2012: Volume I. Part A, Chapter III: Requirements for Biocide Products, Version 1.1 Nov. 2014).

[2] = tested on: biting flies, such as a mosquito; details: in vivo; cited from earlier work
[3] = tested on: Culex spp., Aedes spp., Mansonia spp., and Verrallina spp.; details: compared with Anopheles spp.; cited from earlier work
[4] = human skin; cited from earlier work
[5] = tested on: Aedes Aegypti; details: at circa 50% concentrations, FIG. 1; cited from earlier work
[6] = tested on: Aedes aegypti female mosquitoes; assay: laboratory arm or hand in cage test (complete protection time); assay type: in vivo; details: Citriodiol as active substance, with vanillin, FIG. 14
Experimental: Complete protection times are calculated as the number of minutes (or hours) elapsed between the time of repellent application and the first mosquito landing or probing. Complete Protection Times are reported herein as a median value of protection time given by each individual. Complete Protection Times are abbreviated herein as CPTs. […]
Complete protection time provided by each product was evaluated by following hand in cage studies as per a modified WHO protocol (HTM/NTD/WHOPES/2009.4).
Typically, the test consisted of inserting a repellent treated arm into a cage measuring 35 cm on each side, containing laboratory bred 200 numbers of non-blood fed Aedes Aegypti mosquitoes which were approximately 5-7 days old and the elapsed time to first landing or probing (which refers to an insect landing and penetrating the skin with its mouthparts, without ingesting blood) was determined. […]
Readiness of the mosquitoes to bite (biting pressure) was checked by inserting un-treated arm for 1 minute prior to inserting treated arm at each 30-minute interval. […] Complete protection time was calculated as the number of minutes (or hours) elapsed between the time of repellent application and the first mosquito landing or probing. […]

| SMILES | photosensitisation and secondary oxidation (discoloration) of vanillin [1] | CPTs compared with DEET [2] | other results |
| --- | --- | --- | --- |
| COc1ccc(O)c(C(C)(C)C)c1 [BHA] | negative | – | – |
| CCCCN(CCC(=O)OCC)C(C)=O [IR3535, ethyl butylacetylaminopropionate] | – | neither ethyl butylacetylaminopropionate (IR3535) nor Picaridin (KBR 3023) has demonstrated meaningful superiority to DEET | – |
| CCC(C)OC(=O)N1CCCCC1CCO (stereo not drawn) [Picaridin] | – | neither ethyl butylacetylaminopropionate (IR3535) nor Picaridin (KBR 3023) has demonstrated meaningful superiority to DEET | – |
| CCN(CC)C(=O)c1cccc(C)c1 [DEET, N,N-Diethyl-3-methylbenzamide] | – | – | protection against different mosquito genera [3]: longer against these genera than provided against Anopheles spp.; absorption through skin [4]: absorbed through human skin; CPT at which activity plateaus [5]: 5 to 6 h |
| O=S([O-])O.[Na+] [sodium bisulphite] | Lack of photosensitisation and secondary oxidation of vanillin; also recorded: one significant exception | – | effect of addition of 1% antioxidant on efficacy (CPTs) [6]: still further significant improvement in efficacy |
| CCCOC(=O)c1cc(O)c(O)c(O)c1 [propyl gallate] | negative | – | – |

From patent publication US10617117B2, “Insect repellent composition and method of use” (NEO-INNOVA HEALTHCARE LIMITED, priority 2015, dated 2020)
